Data: patent US12459951B2, “Compounds that interact with RAS superfamily proteins for treatment of cancers, inflammatory diseases, rasopathies, and fibrotic disease” (SHY Therapeutics, LLC, priority 2022, dated 2025)

Assays:
[1] = system: Smad2/Smad3 phosphorylation; test: Phospho-Smad2/3 Inhibition Assay (western blot), Panc-1; type: cell-based, human; conditions: at 10 μM, Panc-1 pancreatic cancer cell line; starred symbols = activation
Procedure, shortened: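 Panc-1 cells (KRas G12D), starved overnight in 0.5% FBS, treated 3 h at 37° C with compound at 10 μM final (0.3% DMSO) or serial dilutions for IC50, then stimulated with 10 ng/ml TGF-b1 for 1 h. Phospho-Smad2 (Ser465/467) and phospho-Smad3 (Ser423/425) detected by western blot.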

[2] = system: KRas G12C mutant; test: Ras GTP Binding Domain Inhibition Assay (Ras Superfamily Assay); conditions: 20 μM compound; for KRas G12C mutant + SOS: % inh.: with SOS; for KRas G12C mutant: % inh.: without SOS
Procedure, shortened: (§1)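 Ni-plate capture of His-tagged protein (10-30 μg/mL, o/n 4° C); cpd 20 μM or dilution series, 1% DMSO, 3 h RT ± Sos 556-1049 last h; 100 nM Cy-labelled GTP 45 min RT; 3× wash; fluorescence read.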

[3] = system: KRas G12D mutant; test: as above; conditions: 20 μM compound; for KRas G12D mutant + SOS: % inh.: with SOS; for KRas G12D mutant: % inh.: without SOS
Procedure, shortened: as §1

[4] = system: KRas Q61H mutant; test: as above; conditions: 20 μM compound; for KRas Q61H mutant + SOS: % inh.: with SOS; for KRas Q61H mutant: % inh.: without SOS
Procedure, shortened: as §1

[5] = system: KRas wild type; test: as above; conditions: 20 μM compound; for KRas wild type + SOS: % inh.: with SOS; for KRas wild type: % inh.: without SOS
Procedure, shortened: as §1

[6] = molecular target: T1, Rac-1 (Homo sapiens, UniProt P63000); test: as above; conditions: read-out: Rac-1: % inh.
T1 construct: made in house
Procedure, shortened: as §1

[7] = molecular target: T2, Rho-A (Homo sapiens, UniProt P61586); test: as above; conditions: read-out: Rho-A: % inh..
T2 construct: made in house
Procedure, shortened: as §1

T2 sequence (P61586 whole entry): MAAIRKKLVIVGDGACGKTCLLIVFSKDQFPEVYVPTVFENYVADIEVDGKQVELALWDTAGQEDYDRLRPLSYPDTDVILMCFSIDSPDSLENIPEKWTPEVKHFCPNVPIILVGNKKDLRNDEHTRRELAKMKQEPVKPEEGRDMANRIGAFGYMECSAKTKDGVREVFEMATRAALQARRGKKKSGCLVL

COc1cc(Nc2nc(-c3nccn3C)nn3cc(-c4ccncc4)c(C)c23)ncn1 [Compound 49, N-(6-Methoxypyrimidin-4-yl)-5-methyl-2-(1-methyl-1H-imidazol-2-yl)-6-(pyridin-4-yl)pyrrolo[2,1-f][1,2,4]triazin-4-amine]
% inh of Smad2/3 phosphorylation in Panc-1 [1]: B (B = 26-45% inhibition)
KRas G12C mutant + SOS: % inh. [2]: 0 (0 = 0% inhibition)
KRas G12C mutant: % inh. [2]: A (A = 1-25% inhibition)
KRas G12D mutant + SOS: % inh. [3]: B (B = 26-49% inhibition)
KRas G12D mutant: % inh. [3]: C (C = 50-75% inhibition)
KRas Q61H mutant + SOS: % inh. [4]: D (D = 76-100% inhibition)
KRas Q61H mutant: % inh. [4]: D (D = 76-100% inhibition)
KRas wild type + SOS: % inh. [5]: 0 (0 = 0% inhibition)
KRas wild type: % inh. [5]: B (B = 26-49% inhibition)
inhibition at 20 µM [6]: 26 to 49%
inhibition at 20 µM [7]: 26 to 49%

COc1cccc(-c2cn3nc(-c4nccn4C)nc(O)c3c2-c2ccccc2)c1Cl [Compound 28, 6-(2-Chloro-3-methoxyphenyl)-2-(1-methyl-1H-imidazol-2-yl)-5-phenylpyrrolo[2,1-f][1,2,4]triazin-4-ol]
% inh of Smad2/3 phosphorylation in Panc-1 [1]: 0 (0 = 0% inhibition)
KRas G12C mutant + SOS: % inh. [2]: A (A = 1-25% inhibition)
KRas G12C mutant: % inh. [2]: A (A = 1-25% inhibition)
KRas G12D mutant + SOS: % inh. [3]: A (A = 1-25% inhibition)
KRas G12D mutant: % inh. [3]: A (A = 1-25% inhibition)
KRas Q61H mutant + SOS: % inh. [4]: A (A = 1-25% inhibition)
KRas Q61H mutant: % inh. [4]: A (A = 1-25% inhibition)
KRas wild type + SOS: % inh. [5]: A (A = 1-25% inhibition)
KRas wild type: % inh. [5]: A (A = 1-25% inhibition)
inhibition at 20 µM [6]: 26 to 49%
inhibition at 20 µM [7]: 1 to 25%

Cc1c(-c2ccn(C(C)C)n2)cn2nc(-c3nccn3C)nc(Nc3cc(C4CC4)n[nH]3)c12 [Compound 68, N-(3-Cyclopropyl-1H-pyrazol-5-yl)-6-(1-isopropyl-1H-pyrazol-3-yl)-5-methyl-2-(1-methyl-1H-imidazol-2-yl)pyrrolo[2,1-f][1,2,4]triazin-4-amine]
% inh of Smad2/3 phosphorylation in Panc-1 [1]: A* (A* = 1-25% activation)
KRas G12C mutant + SOS: % inh. [2]: D (D = 76-100% inhibition)
KRas G12C mutant: % inh. [2]: D (D = 76-100% inhibition)
KRas G12D mutant + SOS: % inh. [3]: D (D = 76-100% inhibition)
KRas G12D mutant: % inh. [3]: D (D = 76-100% inhibition)
KRas Q61H mutant + SOS: % inh. [4]: D (D = 76-100% inhibition)
KRas Q61H mutant: % inh. [4]: D (D = 76-100% inhibition)
KRas wild type + SOS: % inh. [5]: D (D = 76-100% inhibition)
KRas wild type: % inh. [5]: D (D = 76-100% inhibition)
inhibition at 20 µM [6]: 76 to 100%
inhibition at 20 µM [7]: 76 to 100%

COc1cccc(-c2cn3nc(-c4nccn4C)nc(N[C@H]4C[C@H](OC)C4)c3c2-c2ccccc2)c1F [Compound 42, 6-(2-Fluoro-3-methoxyphenyl)-N-((1r,3r)-3-methoxycyclobutyl)-2-(1-methyl-1H-imidazol-2-yl)-5-phenylpyrrolo[2,1-f][1,2,4]triazin-4-amine]
% inh of Smad2/3 phosphorylation in Panc-1 [1]: 0 (0 = 0% inhibition)
KRas G12C mutant + SOS: % inh. [2]: 0 (0 = 0% inhibition)
KRas G12C mutant: % inh. [2]: 0 (0 = 0% inhibition)
KRas G12D mutant + SOS: % inh. [3]: 0 (0 = 0% inhibition)
KRas G12D mutant: % inh. [3]: 0 (0 = 0% inhibition)
KRas Q61H mutant + SOS: % inh. [4]: B (B = 26-49% inhibition)
KRas Q61H mutant: % inh. [4]: B (B = 26-49% inhibition)
KRas wild type + SOS: % inh. [5]: 0 (0 = 0% inhibition)
KRas wild type: % inh. [5]: 0 (0 = 0% inhibition)
inhibition at 20 µM [6]: 0%
inhibition at 20 µM [7]: 1 to 25%

COc1cccc(-c2cn3nc(-c4nccn4C)nc(N[C@H]4C[C@@H](OC)C4)c3c2-c2ccccc2)c1Cl [Compound 31, 6-(2-Chloro-3-methoxyphenyl)-N-((1s,3s)-3-methoxycyclobutyl)-2-(1-methyl-1H-imidazol-2-yl)-5-phenylpyrrolo[2,1-f][1,2,4]triazin-4-amine]
% inh of Smad2/3 phosphorylation in Panc-1 [1]: D (D = 76-100% inhibition)
KRas G12C mutant + SOS: % inh. [2]: 0 (0 = 0% inhibition)
KRas G12C mutant: % inh. [2]: A (A = 1-25% inhibition)
KRas G12D mutant + SOS: % inh. [3]: B (B = 26-49% inhibition)
KRas G12D mutant: % inh. [3]: A (A = 1-25% inhibition)
KRas Q61H mutant + SOS: % inh. [4]: A (A = 1-25% inhibition)
KRas Q61H mutant: % inh. [4]: 0 (0 = 0% inhibition)
KRas wild type + SOS: % inh. [5]: 0 (0 = 0% inhibition)
KRas wild type: % inh. [5]: A (A = 1-25% inhibition)
inhibition at 20 µM [6]: 1 to 25%
inhibition at 20 µM [7]: 1 to 25%

COCCO[C@H]1C[C@H](Nc2nc(-c3nccn3C)nn3cc(-c4cccc(OC)c4F)c(-c4ccccc4)c23)C1 [Compound 44, 6-(2-Fluoro-3-methoxyphenyl)-N-((1r,3r)-3-(2-methoxyethoxy)cyclobutyl)-2-(1-methyl-1H-imidazol-2-yl)-5-phenylpyrrolo[2,1-f][1,2,4]triazin-4-amine]
% inh of Smad2/3 phosphorylation in Panc-1 [1]: D (D = 76-100% inhibition)
KRas G12C mutant + SOS: % inh. [2]: B (B = 26-49% inhibition)
KRas G12C mutant: % inh. [2]: 0 (0 = 0% inhibition)
KRas G12D mutant + SOS: % inh. [3]: C (C = 50-75% inhibition)
KRas G12D mutant: % inh. [3]: B (B = 26-49% inhibition)
KRas Q61H mutant + SOS: % inh. [4]: D (D = 76-100% inhibition)
KRas Q61H mutant: % inh. [4]: D (D = 76-100% inhibition)
KRas wild type + SOS: % inh. [5]: B (B = 26-49% inhibition)
KRas wild type: % inh. [5]: 0 (0 = 0% inhibition)
inhibition at 20 µM [6]: 26 to 49%
inhibition at 20 µM [7]: 1 to 25%

COc1cccc(Nc2nc(-c3nccn3C)nn3cc(-c4ccn(C(C)C)n4)c(-c4ccccc4)c23)n1 [Compound 23, 6-(1-Isopropyl-1H-pyrazol-3-yl)-N-(6-methoxypyridin-2-yl)-2-(1-methyl-1H-imidazol-2-yl)-5-phenylpyrrolo[2,1-f][1,2,4]triazin-4-amine]
% inh of Smad2/3 phosphorylation in Panc-1 [1]: 0 (0 = 0% inhibition)
KRas G12C mutant + SOS: % inh. [2]: 0 (0 = 0% inhibition)
KRas G12C mutant: % inh. [2]: A (A = 1-25% inhibition)
KRas G12D mutant + SOS: % inh. [3]: 0 (0 = 0% inhibition)
KRas G12D mutant: % inh. [3]: A (A = 1-25% inhibition)
KRas Q61H mutant + SOS: % inh. [4]: 0 (0 = 0% inhibition)
KRas Q61H mutant: % inh. [4]: A (A = 1-25% inhibition)
KRas wild type + SOS: % inh. [5]: A (A = 1-25% inhibition)
KRas wild type: % inh. [5]: 0 (0 = 0% inhibition)
inhibition at 20 µM [6]: 1 to 25%
inhibition at 20 µM [7]: 1 to 25%

COc1cccc(-c2cn3nc(-c4nccn4C)nc(N[C@@H]4CC[C@@H](OC)C4)c3c2-c2ccccc2)c1F (racemic) [Compound 43, rac 6-(2-Fluoro-3-methoxyphenyl)-N-((1R,3R)-3-methoxycyclopentyl)-2-(1-methyl-1H-imidazol-2-yl)-5-phenylpyrrolo[2,1-f][1,2,4]triazin-4-amine]
% inh of Smad2/3 phosphorylation in Panc-1 [1]: D (D = 76-100% inhibition)
KRas G12C mutant + SOS: % inh. [2]: 0 (0 = 0% inhibition)
KRas G12C mutant: % inh. [2]: 0 (0 = 0% inhibition)
KRas G12D mutant + SOS: % inh. [3]: 0 (0 = 0% inhibition)
KRas G12D mutant: % inh. [3]: A (A = 1-25% inhibition)
KRas Q61H mutant + SOS: % inh. [4]: B (B = 26-49% inhibition)
KRas Q61H mutant: % inh. [4]: B (B = 26-49% inhibition)
KRas wild type + SOS: % inh. [5]: 0 (0 = 0% inhibition)
KRas wild type: % inh. [5]: 0 (0 = 0% inhibition)
inhibition at 20 µM [6]: 1 to 25%
inhibition at 20 µM [7]: 1 to 25%
